Measurements from patent publication US7371734B2, “Oligonucleotide compositions and their use for the modulation of immune responses” (Bioniche Life Sciences Inc., priority 2002, dated 2008).

Tested on: female BALB/C mice
Assay: Oral vaccination with hepatitis surface antigen, anti-HbsAg ELISA
Format: in vivo
Conditions: oral day 0, 7, 14, 450 nm; for IgA total at 1:2 dilution, mean ± SD: gut washes day 21; for Total IgG at 1:32 dilution, mean ± SD: plasma day 21
Method: Immunization with recombinant hepatitis B surface antigen combined with N6A or N6B polynucleotide was conducted on 6-8 week old female BALB/C mice (Charles River, St-Constant, Qc, Canada). Each mouse (5 mice per group) has received orally a solution containing: Saline (Group 1), HbsAg 10 μg (Group 2), HbsAg 10 μg+N6A 1 μg (Group 3), HbsAg 10 μg+N6A 10 μg (Group 4), HbsAg 10 μg+N6A 100 μg (Group 5), HbsAg 10 μg+N6B 1 μg (Group 6), HbsAg 10 μg+N6B 10 μg (Group 7) and HbsAg 10 μg+N6B 100 μg (Group 8) in a total volume of 50 μl at day 0, 7 and day 14. Plasma and gut washes were recovered at day 21. Gut washes (for IgA determination) were obtained by gently pipetting 0.2 ml of PBS containing protease inhibitors (10 μg pepstatin, 10 μg leupeptin, 10 μg antipain and 50 μg benzamidine).
Antibodies specific to HbsAg were detected and quantified by ELISA. Briefly, a solid phase of HbsAg protein (1.0 μg per well, overnight at 4° C.) was used to capture anti-HbsAg in the plasma or in the gut washes (1 hour at 37° C.), which were then detected with horseradish peroxidase-conjugated goat anti-mouse IgA (for gut washes) and goat anti-mouse total IgG (for plasma) following the instructions of the manufacturer (Clonetyping system, Southern Biotechnology Inc.). Data are expressed in Table 14 in OD (450 nm) as the mean±SD of 5 mice per group. […]

[1] = HbsAg 10 μg + polynucleotide 1 μg
[2] = HbsAg 10 μg + polynucleotide 10 μg
[3] = HbsAg 10 μg + polynucleotide 100 μg

Substance	IgA total at 1:2 dilution, mean ± SD [1] [OD]	Total IgG at 1:32 dilution, mean ± SD [1] [OD]	IgA total at 1:2 dilution, mean ± SD [2] [OD]	Total IgG at 1:32 dilution, mean ± SD [2] [OD]	IgA total at 1:2 dilution, mean ± SD [3] [OD]	Total IgG at 1:32 dilution, mean ± SD [3] [OD]
5′GGGAGG3′ [N6A] (unmodified DNA)	0.662 ± 0.166	0.138 ± 0.055	0.853 ± 0.543	0.141 ± 0.044	0.650 ± 0.276	0.121 ± 0.055
5′GGGAGG3′ [N6B] (DNA, backbone not given here; further chemistry not fully specified)	0.549 ± 0.242	0.104 ± 0.030	0.333 ± 0.156	0.225 ± 0.135	0.492 ± 0.074	0.120 ± 0.057
